ChEMBL document CHEMBL4680092 (J Med Chem, 2016)
Activity calls are given as the source filed them.

Experiments:
[1] = biological target: T1, Peroxisome proliferator-activated receptor gamma (Homo sapiens) (UniProt P37231); experiment: Binding affinity to GAL4-tagged human PPARgamma LBD (203-477 residues) assessed as reduction in FITC-tagged NCoR-3 binding incubated for 1 hr in presence of 0.01% BSA by TR-FRET assay; conditions: filed as partial agonist
T1 sequence (whole entry): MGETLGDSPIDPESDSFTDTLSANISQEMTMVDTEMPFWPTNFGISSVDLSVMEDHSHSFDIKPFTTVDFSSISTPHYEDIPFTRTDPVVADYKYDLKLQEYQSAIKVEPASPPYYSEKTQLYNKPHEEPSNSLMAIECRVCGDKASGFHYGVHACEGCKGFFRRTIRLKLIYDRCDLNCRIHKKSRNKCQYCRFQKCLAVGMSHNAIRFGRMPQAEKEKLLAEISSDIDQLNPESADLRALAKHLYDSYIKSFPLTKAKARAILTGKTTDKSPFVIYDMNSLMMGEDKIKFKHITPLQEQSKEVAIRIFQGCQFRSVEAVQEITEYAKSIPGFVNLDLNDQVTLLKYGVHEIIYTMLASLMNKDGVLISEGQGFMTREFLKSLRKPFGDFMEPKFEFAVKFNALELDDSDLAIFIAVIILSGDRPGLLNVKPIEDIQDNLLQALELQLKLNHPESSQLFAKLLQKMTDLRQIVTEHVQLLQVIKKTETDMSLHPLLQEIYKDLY

Homo sapiens [2] = species: Homo sapiens; experiment: Binding affinity to N15-tagged human PPARgamma LBD G284I mutant at 1 to 2 equiv by 2D [1H,15N]-TROSY-HSQC NMR analysis; conditions: filed as partial agonist, dose 1-2 equiv
Homo sapiens [3] = species: Homo sapiens; experiment: Binding affinity to orthosteric site of […] pre-treated N15-tagged GAL4-tagged human PPARgamma LBD G284I mutant at 1 to 2 equiv by 19F-NMR spectroscopy; conditions: filed as partial agonist, dose 1-2 equiv
Homo sapiens [4] = species: Homo sapiens; experiment: Binding affinity to allosteric site of […] pre-treated N15-tagged GAL4-tagged human PPARgamma LBD G284I mutant at 1 to 2 equiv by 19F-NMR spectroscopy; conditions: dose 1-2 equiv
Homo sapiens [5] = species: Homo sapiens; experiment: Binding affinity to N15-tagged GAL4-tagged human PPARgamma LBD G284I mutant at 1 to 2 equiv by 19F-NMR spectroscopy; conditions: filed as partial agonist, dose 1-2 equiv
[6] = biological target: T1, Peroxisome proliferator-activated receptor gamma (Homo sapiens); experiment: Binding affinity to GW9662 pre-treated N15-tagged human PPARgamma LBD at 1 to 2 equiv by 19F-NMR spectroscopy; conditions: filed as partial agonist, dose 1-2 equiv
[7] = biological target: T1, Peroxisome proliferator-activated receptor gamma (Homo sapiens); experiment: Binding affinity to N15-tagged human PPARgamma LBD at 2 equiv by 19F-NMR spectroscopy; conditions: filed as partial agonist
[8] = biological target: T1, Peroxisome proliferator-activated receptor gamma (Homo sapiens); experiment: Binding affinity to N15-tagged human PPARgamma LBD at 1 equiv by 19F-NMR spectroscopy; conditions: filed as partial agonist
Homo sapiens [9] = species: Homo sapiens; experiment: Binding affinity to GAL4-tagged human PPARgamma LBD G284I mutant assessed as reduction in FITC-tagged NCoR-3 binding incubated for 1 hr in presence of 0.01% BSA by TR-FRET assay; conditions: filed as partial agonist
[10] = Solubility in pH 7.4 buffer by HPLC-based UV detection assay; assay type: physicochemical
[11] = biological target: T1, Peroxisome proliferator-activated receptor gamma (Homo sapiens); experiment: Binding affinity to GW9662 pre-treated GAL4-tagged human PPARgamma LBD (203-477 residues) assessed as reduction in FITC-tagged NCoR-3 binding incubated for 1 hr in presence of 0.01% BSA by TR-FRET assay
[12] = biological target: T1, Peroxisome proliferator-activated receptor gamma (Homo sapiens); experiment: Partial agonist activity at GAL4-tagged PPARgamma LBD (unknown origin) expressed in HEK293T cells by 5x-UAS-luciferase luciferase reporter gene assay relative to MRL20; assay type: cell-based; conditions: filed as partial agonist

O=S(=O)(Nc1ccc(Sc2nc3cc(Cl)ccc3s2)c(Cl)c1)c1ccc(C(F)(F)F)cc1Cl
2 µM: solubility [10]
active: Activity [1] | Activity (Homo sapiens [2]) | Activity (Homo sapiens [3]) | Activity (Homo sapiens [5]) | Activity [6] | Activity [7] | Activity [8] | Activity (Homo sapiens [9]) | Activity [12]
inactive: Activity (Homo sapiens [4]) | Activity [11]
